{
  "source": "ChEMBL document CHEMBL5120812",
  "about": "“Cytotoxic Nitrobenzoyl Sesquiterpenoids from an Antarctica Sponge-Derived Aspergillus insulicola” (J Nat Prod, 2022)",
  "key": {"[1]": {"system": "PANC-1", "test": "Cytotoxicity against human PANC-1 cells assessed as inhibition of cell growth incubated for 72 hrs by SRB assay", "assay_type": "functional, cell-based", "conditions": "PANC-1, 72 h"}, "[2]": {"system": "PANC-1", "test": "Induction of apoptosis in human PANC-1 cells assessed as viable cells at 2.50 uM incubated for 24 hrs by annexinV-FITC and PI staining based flow cytometry analysis (reference value: 89.5 %)", "assay_type": "functional", "conditions": "read-out: Activity"}, "[3]": {"system": "PANC-1", "test": "Antiinvasive activity in human PANC-1 cells assessed as decrease in cell invasion at 0.94 to 3.75 uM incubated for 24 hrs by crystal violet staining based transwell assay", "assay_type": "functional", "conditions": "dose 0.94-3.75 µM"}, "[4]": {"system": "MDA-MB-231", "test": "Cytotoxicity against human MDA-MB-231 cells assessed as inhibition of cell growth incubated for 72 hrs by SRB assay", "assay_type": "functional, cell-based", "conditions": "MDA-MB-231, 72 h"}, "[5]": {"system": "ASPC1", "test": "Cytotoxicity against human ASPC1 cells assessed as inhibition of cell proliferation at 0.94 to 30 uM by SRB assay", "assay_type": "functional, cell-based", "conditions": "dose 0.94-30 µM, time 24-72 hrs, TDE = time-dependent effect"}, "[6]": {"target": "Epidermal growth factor receptor (Homo sapiens) (UniProt P00533)", "sequence (P00533 whole entry)": "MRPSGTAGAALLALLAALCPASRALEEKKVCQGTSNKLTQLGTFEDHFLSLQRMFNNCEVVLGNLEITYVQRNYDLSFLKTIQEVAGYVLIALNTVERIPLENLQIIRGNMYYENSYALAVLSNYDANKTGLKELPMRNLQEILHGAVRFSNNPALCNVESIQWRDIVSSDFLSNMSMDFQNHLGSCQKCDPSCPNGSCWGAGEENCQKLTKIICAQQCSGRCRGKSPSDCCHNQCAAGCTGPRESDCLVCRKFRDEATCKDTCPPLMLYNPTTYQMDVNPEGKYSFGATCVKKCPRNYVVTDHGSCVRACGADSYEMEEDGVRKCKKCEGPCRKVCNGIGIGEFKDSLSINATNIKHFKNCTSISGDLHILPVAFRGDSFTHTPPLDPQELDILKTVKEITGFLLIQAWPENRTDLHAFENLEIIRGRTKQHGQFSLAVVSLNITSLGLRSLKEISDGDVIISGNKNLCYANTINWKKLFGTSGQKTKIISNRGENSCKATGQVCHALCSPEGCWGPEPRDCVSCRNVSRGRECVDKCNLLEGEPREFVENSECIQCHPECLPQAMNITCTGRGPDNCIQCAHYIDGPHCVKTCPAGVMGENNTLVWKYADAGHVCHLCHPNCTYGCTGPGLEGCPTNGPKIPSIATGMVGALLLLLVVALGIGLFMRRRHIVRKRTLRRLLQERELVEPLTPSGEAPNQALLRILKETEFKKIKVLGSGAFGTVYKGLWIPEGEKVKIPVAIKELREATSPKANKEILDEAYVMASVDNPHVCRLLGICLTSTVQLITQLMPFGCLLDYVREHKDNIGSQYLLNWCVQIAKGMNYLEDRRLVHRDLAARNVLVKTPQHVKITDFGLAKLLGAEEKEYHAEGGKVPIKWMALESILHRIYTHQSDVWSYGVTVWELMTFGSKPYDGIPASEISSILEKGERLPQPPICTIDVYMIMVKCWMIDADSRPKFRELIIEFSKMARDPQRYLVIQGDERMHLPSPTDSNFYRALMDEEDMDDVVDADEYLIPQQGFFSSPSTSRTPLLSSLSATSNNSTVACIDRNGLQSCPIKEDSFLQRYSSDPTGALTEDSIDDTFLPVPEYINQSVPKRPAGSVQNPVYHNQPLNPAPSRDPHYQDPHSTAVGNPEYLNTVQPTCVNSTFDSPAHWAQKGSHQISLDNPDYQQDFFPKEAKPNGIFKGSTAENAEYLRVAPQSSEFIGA", "test": "Inhibition of EGFR downstream signalling in human ASPC1 cells assessed as reduction of Akt phosphorylation upto 5 uM incubated for 24 hrs by Western blot analysis", "assay_type": "cell-based"}, "[7]": {"target": "Epidermal growth factor receptor (Homo sapiens) (UniProt P00533)", "test": "Inhibition of EGFR downstream signalling in human PANC-1 cells assessed as reduction of Akt phosphorylation upto 5 uM incubated for 24 hrs by Western blot analysis", "assay_type": "cell-based"}, "[8]": {"system": "ASPC1", "test": "Induction of apoptosis in human ASPC1 cells assessed as viable cells at 1.25 uM incubated for 24 hrs by annexinV-FITC and PI staining based flow cytometry analysis (reference value: 96.0 %)", "assay_type": "functional", "conditions": "read-out: Activity"}, "[9]": {"system": "ASPC1", "test": "Induction of apoptosis in human ASPC1 cells assessed as viable cells at 2.50 uM incubated for 24 hrs by annexinV-FITC and PI staining based flow cytometry analysis (reference value: 96.0 %)", "assay_type": "functional", "conditions": "read-out: Activity"}, "[10]": {"system": "ASPC1", "test": "Induction of apoptosis in human ASPC1 cells assessed as viable cells at 5 uM incubated for 24 hrs by annexinV-FITC and PI staining based flow cytometry analysis (reference value: 96.0 %)", "assay_type": "functional", "conditions": "read-out: Activity"}, "[11]": {"system": "ASPC1", "test": "Induction of apoptosis in human ASPC1 cells assessed as early apoptotic cells at 1.25 uM incubated for 24 hrs by annexinV-FITC and PI staining based flow cytometry analysis (reference value: 1.56 %)", "assay_type": "functional"}, "[12]": {"system": "ASPC1", "test": "Induction of apoptosis in human ASPC1 cells assessed as early apoptotic cells at 5 uM incubated for 24 hrs by annexinV-FITC and PI staining based flow cytometry analysis (reference value: 1.56 %)", "assay_type": "functional"}, "[13]": {"system": "ASPC1", "test": "Induction of apoptosis in human ASPC1 cells assessed as late apoptotic cells at 1.25 uM incubated for 24 hrs by annexinV-FITC and PI staining based flow cytometry analysis (reference value: 2.18 %)", "assay_type": "functional"}, "[14]": {"system": "ASPC1", "test": "Induction of apoptosis in human ASPC1 cells assessed as late apoptotic cells at 2.50 uM incubated for 24 hrs by annexinV-FITC and PI staining based flow cytometry analysis (reference value: 2.18 %)", "assay_type": "functional", "conditions": "dose 2.5 µM"}, "[15]": {"system": "ASPC1", "test": "Induction of apoptosis in human ASPC1 cells assessed as necrotic cells at 1.25 uM incubated for 24 hrs by annexinV-FITC and PI staining based flow cytometry analysis (reference value: 0.27 %)", "assay_type": "functional"}, "[16]": {"system": "ASPC1", "test": "Induction of apoptosis in human ASPC1 cells assessed as necrotic cells at 2.50 uM incubated for 24 hrs by annexinV-FITC and PI staining based flow cytometry analysis (reference value: 0.27 %)", "assay_type": "functional", "conditions": "dose 2.5 µM"}, "[17]": {"system": "ASPC1", "test": "Induction of apoptosis in human ASPC1 cells assessed as necrotic cells at 5 uM incubated for 24 hrs by annexinV-FITC and PI staining based flow cytometry analysis (reference value: 0.27 %)", "assay_type": "functional"}, "[18]": {"system": "PANC-1", "test": "Induction of apoptosis in human PANC-1 cells assessed as early apototic cells at 5 uM incubated for 24 hrs by annexinV-FITC and PI staining based flow cytometry analysis (reference value: 4.66 %)", "assay_type": "functional"}, "[19]": {"system": "PANC-1", "test": "Induction of apoptosis in human PANC-1 cells assessed as late apototic cells at 1.25 uM incubated for 24 hrs by annexinV-FITC and PI staining based flow cytometry analysis (reference value: 5.71 %)", "assay_type": "functional"}, "[20]": {"system": "PANC-1", "test": "Induction of apoptosis in human PANC-1 cells assessed as late apototic cells at 2.50 uM incubated for 24 hrs by annexinV-FITC and PI staining based flow cytometry analysis (reference value: 5.71 %)", "assay_type": "functional", "conditions": "dose 2.5 µM"}, "[21]": {"system": "PANC-1", "test": "Induction of apoptosis in human PANC-1 cells assessed as necrotic cells at 2.50 uM incubated for 24 hrs by annexinV-FITC and PI staining based flow cytometry analysis (reference value: 0.14 %)", "assay_type": "functional", "conditions": "dose 2.5 µM"}, "[22]": {"system": "PANC-1", "test": "Induction of apoptosis in human PANC-1 cells assessed as necrotic cells at 5 uM incubated for 24 hrs by annexinV-FITC and PI staining based flow cytometry analysis (reference value: 0.14 %)", "assay_type": "functional"}, "[23]": {"system": "ASPC1", "test": "Induction of apoptosis in human ASPC1 cells assessed as increase in cleaved caspase 3 level incubated for 24 hrs by Western blot analysis", "assay_type": "functional, cell-based", "conditions": "dose 1.25-5 µM, DDE = dose-dependent effect"}, "[24]": {"system": "PANC-1", "test": "Induction of apoptosis in human PANC-1 cells assessed as increase in PARP level incubated for 24 hrs by Western blot analysis", "assay_type": "functional, cell-based", "conditions": "dose 1.25-5 µM, DDE = dose-dependent effect"}, "[25]": {"system": "ASPC1", "test": "Downregulation of survivin level in human ASPC1 cells upto 5 uM incubated for 24 hrs by Western blot analysis", "assay_type": "functional, cell-based"}, "[26]": {"system": "PANC-1", "test": "Induction of apoptosis in human PANC-1 cells assessed as suppression of XIAP expression at upto 5 uM incubated for 24 hrs by Western blot analysis", "assay_type": "functional, cell-based"}, "[27]": {"system": "PANC-1", "test": "Induction of apoptosis in human PANC-1 cells assessed as increase in caspase 3 enzymatic activity upto 5 uM incubated for 24 hrs by Western blot analysis", "assay_type": "functional, cell-based"}, "[28]": {"system": "ASPC1", "test": "Inhibition of cell migration in human ASPC1 cells at 0.94 to 3.75 uM incubated for 24 hrs by wound healing assay", "assay_type": "functional, cell-based", "conditions": "dose 0.94-3.75 µM"}, "[29]": {"system": "ASPC1", "test": "Antiinvasive activity in human ASPC1 cells assessed as decrease in cell invasion at 0.94 to 3.75 uM incubated for 24 hrs by crystal violet staining based transwell assay", "assay_type": "functional", "conditions": "dose 0.94-3.75 µM"}, "[30]": {"system": "ASPC1", "test": "Cytotoxicity against human ASPC1 cells assessed as reduction in cell viability at 5 uM incubated for 24 hrs in presence of gemcitabine by SRB assay", "assay_type": "functional, cell-based"}, "[31]": {"system": "PANC-1", "test": "Cytotoxicity against human PANC-1 cells assessed as reduction in cell viability at 5 uM incubated for 24 hrs in presence of gemcitabine by SRB assay", "assay_type": "functional, cell-based"}, "[32]": {"system": "ASPC1", "test": "Upregulation of cleaved caspase 3 expression in human ASPC1 cells incubated for 24 hrs in presence of gemcitabine by Western blot analysis", "assay_type": "functional, cell-based"}, "[33]": {"system": "PANC-1", "test": "Upregulation of cleaved caspase 3 expression in human PANC-1 cells incubated for 24 hrs in presence of gemcitabine by Western blot analysis", "assay_type": "functional, cell-based"}, "[34]": {"system": "PANC-1", "test": "Upregulation of PARP expression in human PANC-1 cells incubated for 24 hrs in presence of gemcitabine by Western blot analysis", "assay_type": "functional, cell-based"}, "[35]": {"system": "PANC-1", "test": "Cytotoxicity against human PANC-1 cells assessed as inhibition of cell proliferation incubated for 24 to 72 hrs by SRB assay", "assay_type": "functional, cell-based", "conditions": "dose 0.94-30 µM, time 24-72 hrs, DDE = dose-dependent effect"}, "[36]": {"target": "Epidermal growth factor receptor (Homo sapiens) (UniProt P00533)", "test": "Inhibition of EGFR expression in human ASPC1 cells upto 5 uM incubated for 24 hrs by Western blot analysis", "assay_type": "cell-based"}},
  "note": "The source made the active and inactive calls. The calls are words filed in the database; no cut-off is given here.",
  "data": [
    {"compound": "COC(=O)CCCCCCC/C=C/C(=O)OC[C@@]1(C)CCC[C@@]2(C)[C@H]1[C@H](OC(=O)c1ccc([N+](=O)[O-])cc1)C=C1C(=O)OC[C@@]12O", "values": [
      {"measurement": "IC50", "setting": "[1]", "result": 4.2, "unit": "µM"},
      {"measurement": "viability at 2.5 µM", "setting": "[2]", "result": 80.6, "unit": "%"},
      {"measurement": "Activity", "setting": "[3]", "result": "Active"},
      {"measurement": "IC50", "setting": "[4]", "result": 22.9, "unit": "µM"},
      {"measurement": "Activity", "setting": "[5]", "result": "Tde"},
      {"measurement": "inhibition", "setting": "[6]", "result": "Active"},
      {"measurement": "inhibition", "setting": "[7]", "result": "Active"},
      {"measurement": "viability at 1.25 µM", "setting": "[8]", "result": 90.1, "unit": "%"},
      {"measurement": "viability at 2.5 µM", "setting": "[9]", "result": 87.7, "unit": "%"},
      {"measurement": "viability at 5 µM", "setting": "[10]", "result": 85.1, "unit": "%"},
      {"measurement": "Activity", "setting": "[11]", "result": 5.77, "unit": "%"},
      {"measurement": "Activity", "setting": "[12]", "result": 2.98, "unit": "%"},
      {"measurement": "Activity", "setting": "[13]", "result": 3.96, "unit": "%"},
      {"measurement": "Activity", "setting": "[14]", "result": 4.92, "unit": "%"},
      {"measurement": "Activity", "setting": "[15]", "result": 0.2, "unit": "%"},
      {"measurement": "Activity", "setting": "[16]", "result": 0.38, "unit": "%"},
      {"measurement": "Activity", "setting": "[17]", "result": 1.79, "unit": "%"},
      {"measurement": "Activity", "setting": "[18]", "result": 7.12, "unit": "%"},
      {"measurement": "Activity", "setting": "[19]", "result": 3.09, "unit": "%"},
      {"measurement": "Activity", "setting": "[20]", "result": 13.6, "unit": "%"},
      {"measurement": "Activity", "setting": "[21]", "result": 0.25, "unit": "%"},
      {"measurement": "Activity", "setting": "[22]", "result": 0.11, "unit": "%"},
      {"measurement": "Activity", "setting": "[23]", "result": "Dde"},
      {"measurement": "Activity", "setting": "[24]", "result": "Dde"},
      {"measurement": "Activity", "setting": "[25]", "result": "Active"},
      {"measurement": "Activity", "setting": "[26]", "result": "Active"},
      {"measurement": "Activity", "setting": "[27]", "result": "Active"},
      {"measurement": "inhibition", "setting": "[28]", "result": "Active"},
      {"measurement": "Activity", "setting": "[29]", "result": "Active"},
      {"measurement": "Activity", "setting": "[30]", "result": "Active"},
      {"measurement": "Activity", "setting": "[31]", "result": "Active"},
      {"measurement": "Activity", "setting": "[32]", "result": "Active"},
      {"measurement": "Activity", "setting": "[33]", "result": "Active"},
      {"measurement": "Activity", "setting": "[34]", "result": "Active"},
      {"measurement": "Activity", "setting": "[35]", "result": "Dde"},
      {"measurement": "inhibition", "setting": "[36]", "result": "Active"}
    ]}
  ]
}
